Assay results published in ChEMBL document CHEMBL4665624, “Synthesis of 5-(4-(1H-phenanthro[9,10-d]imidazol-2-yl)benzylidene)thiazolidine-2,4-dione as promising DNA and serum albumin-binding agents and evaluation of antitumor activity” (Eur J Med Chem, 2019).

Each compound was assayed on SN12C (assay: Antitumor activity against human SN12C cells assessed as cell growth inhibition at 10 uM incubated for 48 hrs by sulforhodamine B assay). Settings: read-out: GI.
Type: functional
With c1cc2ccc3ccc(-c4nc5c6ccccc6c6ccccc6c5[nH]4)c4ccc(c1)c2c34 the inhibition of growth at 10 µM was < 10%.

Each compound was assayed on MDA-MB-468 (assay: Antitumor activity against human MDA-MB-468 cells assessed as cell growth inhibition at 10 uM incubated for 48 hrs by sulforhodamine B assay). Settings: read-out: GI.
Type: functional
With c1cc2ccc3ccc(-c4nc5c6ccccc6c6ccccc6c5[nH]4)c4ccc(c1)c2c34 the inhibition of growth at 10 µM was 78.1%.

Each compound was assayed on OVCAR-3 (assay: Antitumor activity against human OVCAR-3 cells assessed as cell growth inhibition at 10 uM incubated for 48 hrs by sulforhodamine B assay). Settings: read-out: GI.
Type: functional
With c1cc2ccc3ccc(-c4nc5c6ccccc6c6ccccc6c5[nH]4)c4ccc(c1)c2c34 the inhibition of growth at 10 µM was < 10%.

The compounds below were run on NCI/ADR-RES (assay: Antitumor activity against human NCI/ADR-RES cells assessed as cell growth inhibition at 10 uM incubated for 48 hrs by sulforhodamine B assay). Settings: read-out: GI.
Type: functional
In the case of c1cc2ccc3ccc(-c4nc5c6ccccc6c6ccccc6c5[nH]4)c4ccc(c1)c2c34, the inhibition of growth at 10 µM is reported as < 10%.

Each compound was assayed on U-251 (assay: Antitumor activity against human U251 cells assessed as cell growth inhibition at 10 uM incubated for 48 hrs by sulforhodamine B assay). Settings: read-out: GI.
Type: functional
With c1cc2ccc3ccc(-c4nc5c6ccccc6c6ccccc6c5[nH]4)c4ccc(c1)c2c34 the inhibition of growth at 10 µM was < 10%.

Each compound was assayed on HCT-15 (assay: Antitumor activity against human HCT15 cells assessed as cell growth inhibition at 10 uM incubated for 48 hrs by sulforhodamine B assay). Settings: read-out: GI.
Type: functional
In the case of c1cc2ccc3ccc(-c4nc5c6ccccc6c6ccccc6c5[nH]4)c4ccc(c1)c2c34, the inhibition of growth at 10 µM is reported as < 10%.

These compounds were tested on UACC-62 (assay: Antitumor activity against human UACC-62 cells assessed as cell growth inhibition at 10 uM incubated for 48 hrs by sulforhodamine B assay). Settings: read-out: GI.
Type: functional
For c1cc2ccc3ccc(-c4nc5c6ccccc6c6ccccc6c5[nH]4)c4ccc(c1)c2c34, the inhibition of growth at 10 µM was 38.4%.

These compounds were tested on OVCAR-4 (assay: Antitumor activity against human OVCAR-4 cells assessed as cell growth inhibition at 10 uM incubated for 48 hrs by sulforhodamine B assay). Settings: read-out: GI.
Type: functional
For c1cc2ccc3ccc(-c4nc5c6ccccc6c6ccccc6c5[nH]4)c4ccc(c1)c2c34, the inhibition of growth at 10 µM was < 10%.

What follows are compounds tested on Hs-578T (assay: Antitumor activity against human HS 578T cells assessed as cell growth inhibition at 10 uM incubated for 48 hrs by sulforhodamine B assay). Settings: read-out: GI.
Type: functional
In the case of c1cc2ccc3ccc(-c4nc5c6ccccc6c6ccccc6c5[nH]4)c4ccc(c1)c2c34, the inhibition of growth at 10 µM is reported as < 10%.

What follows are compounds tested on HOP-92 (assay: Antitumor activity against human HOP92 cells assessed as cell growth inhibition at 10 uM incubated for 48 hrs by sulforhodamine B assay). Settings: read-out: GI.
Type: functional
c1cc2ccc3ccc(-c4nc5c6ccccc6c6ccccc6c5[nH]4)c4ccc(c1)c2c34 was tested, and the inhibition of growth at 10 µM was 27.1%.

Each compound was assayed on BT-549 (assay: Antitumor activity against human BT-549 cells assessed as cell growth inhibition at 10 uM incubated for 48 hrs by sulforhodamine B assay). Settings: read-out: GI.
Type: functional
With c1cc2ccc3ccc(-c4nc5c6ccccc6c6ccccc6c5[nH]4)c4ccc(c1)c2c34 the inhibition of growth at 10 µM was < 10%.

These compounds were tested on Malme-3M (assay: Antitumor activity against human MALME-3M cells assessed as cell growth inhibition at 10 uM incubated for 48 hrs by sulforhodamine B assay). Settings: read-out: GI.
Type: functional
For c1cc2ccc3ccc(-c4nc5c6ccccc6c6ccccc6c5[nH]4)c4ccc(c1)c2c34, the inhibition of growth at 10 µM was < 10%.

The compounds below were run on SNB-19 (assay: Antitumor activity against human SNB-19 cells assessed as cell growth inhibition at 10 uM incubated for 48 hrs by sulforhodamine B assay). Settings: read-out: GI.
Type: functional
c1cc2ccc3ccc(-c4nc5c6ccccc6c6ccccc6c5[nH]4)c4ccc(c1)c2c34 was tested, and the inhibition of growth at 10 µM was < 10%.

The compounds below were run on HT-29 (assay: Antitumor activity against human HT-29 cells assessed as cell growth inhibition at 10 uM incubated for 48 hrs by sulforhodamine B assay). Settings: read-out: GI.
Type: functional
For c1cc2ccc3ccc(-c4nc5c6ccccc6c6ccccc6c5[nH]4)c4ccc(c1)c2c34, the inhibition of growth at 10 µM was < 10%.

Each compound was assayed on MDA-MB-231 (assay: Antitumor activity against human MDA-MB-231/ATCC cells assessed as cell growth inhibition at 10 uM incubated for 48 hrs by sulforhodamine B assay). Settings: read-out: GI.
Type: functional
Compound c1cc2ccc3ccc(-c4nc5c6ccccc6c6ccccc6c5[nH]4)c4ccc(c1)c2c34 has an inhibition of growth at 10 µM of 23.2%.

Each compound was assayed on IGROV-1 (assay: Antitumor activity against human IGROV1 cells assessed as cell growth inhibition at 10 uM incubated for 48 hrs by sulforhodamine B assay). Settings: read-out: GI.
Type: functional
c1cc2ccc3ccc(-c4nc5c6ccccc6c6ccccc6c5[nH]4)c4ccc(c1)c2c34 showed an inhibition of growth at 10 µM of 13.2%.

Each compound was assayed on OVCAR-8 (assay: Antitumor activity against human OVCAR-8 cells assessed as cell growth inhibition at 10 uM incubated for 48 hrs by sulforhodamine B assay). Settings: read-out: GI.
Type: functional
With c1cc2ccc3ccc(-c4nc5c6ccccc6c6ccccc6c5[nH]4)c4ccc(c1)c2c34 the inhibition of growth at 10 µM was < 10%.

Each compound was assayed on NCI-H226 (assay: Antitumor activity against human NCI-H226 assessed as cell growth inhibition at 10 uM incubated for 48 hrs by sulforhodamine B assay). Settings: read-out: GI.
Type: functional
In the case of c1cc2ccc3ccc(-c4nc5c6ccccc6c6ccccc6c5[nH]4)c4ccc(c1)c2c34, the inhibition of growth at 10 µM is reported as 76.2%.

What follows are compounds tested on COLO 205 (assay: Antitumor activity against human COLO205 cells assessed as cell growth inhibition at 10 uM incubated for 48 hrs by sulforhodamine B assay). Settings: read-out: GI.
Type: functional
c1cc2ccc3ccc(-c4nc5c6ccccc6c6ccccc6c5[nH]4)c4ccc(c1)c2c34 was tested, and the inhibition of growth at 10 µM was < 10%.

What follows are compounds tested on CCRF-CEM (assay: Antitumor activity against human CCRF-CEM cells assessed as cell growth inhibition at 10 uM incubated for 48 hrs by sulforhodamine B assay). Settings: read-out: GI.
Type: functional
c1cc2ccc3ccc(-c4nc5c6ccccc6c6ccccc6c5[nH]4)c4ccc(c1)c2c34 gave an inhibition of growth at 10 µM of 10.3%.

Each compound was assayed on HCT-116 (assay: Antitumor activity against human HCT116 cells assessed as cell growth inhibition at 10 uM incubated for 48 hrs by sulforhodamine B assay). Settings: read-out: GI.
Type: functional
With c1cc2ccc3ccc(-c4nc5c6ccccc6c6ccccc6c5[nH]4)c4ccc(c1)c2c34 the inhibition of growth at 10 µM was 16.6%.

Each compound was assayed on M14 (assay: Antitumor activity against human M14 cells assessed as cell growth inhibition at 10 uM incubated for 48 hrs by sulforhodamine B assay). Settings: read-out: GI.
Type: functional
With c1cc2ccc3ccc(-c4nc5c6ccccc6c6ccccc6c5[nH]4)c4ccc(c1)c2c34 the inhibition of growth at 10 µM was < 10%.

These compounds were tested on EKVX (assay: Antitumor activity against human EKVX cells assessed as cell growth inhibition at 10 uM incubated for 48 hrs by sulforhodamine B assay). Settings: read-out: GI.
Type: functional
With c1cc2ccc3ccc(-c4nc5c6ccccc6c6ccccc6c5[nH]4)c4ccc(c1)c2c34 the inhibition of growth at 10 µM was < 10%.

These compounds were tested on 786-0 (assay: Antitumor activity against human 786-0 cells assessed as cell growth inhibition at 10 uM incubated for 48 hrs by sulforhodamine B assay). Settings: read-out: GI.
Type: functional
c1cc2ccc3ccc(-c4nc5c6ccccc6c6ccccc6c5[nH]4)c4ccc(c1)c2c34 was tested, and the inhibition of growth at 10 µM was < 10%.
